Converted amounts (≈) assume the structure as drawn. Read-outs that look alike come from different tables or passages of the source.
Key:
[1] = test system: Corynebacterium Ax 15; test: Bacteriostatic activity (MIC), microtiter broth turbidity; type: cell-based, Corynebacterium jeikeium; conditions: read-out: MIC (minimal inhibitory concentration)
Text: (§1) The bacteriostatic effects of the compounds of the present invention are compared with those of known anti-bacterial agents against human skin bacteria. Typical bacteria (Corynebacterium and Staphylococcus strains) isolated from the human axilla and commercially available strains are used.
(§2) The different axilla bacteria are isolated from the human axilla according to techniques known in the art, in particular according to standard microbiological practice. They are taxonomically identified by cell morphology, gram-reaction and biochemical tests included in the Api coryne test kit (BioMerieux, France). Strain Staphylococcus epidermidis Ax25 is identified by fatty acid methyl ester analysis (FAME; German type strain collection DSMZ, Germany) . […] The strains are maintained on Tryptic soy broth plates, this standard medium being supplemented with 5 g per Litre of Polyoxyethylene Sorbitan Monooleate (Tween™ 80). Plates are incubated at 36° C. for a period of 48 hours. The bacteria are then swabbed from the plates and suspended in 4 ml of Muller-Hinton broth supplemented with 100 mg of Tween™ 80 per Litre (MH-Tween) and incubated again at 36° C. for 16 hours. Following incubation the bacterial suspensions are diluted in MH-Tween to obtain a final cell density of 10^7 colony forming units per ml. These diluted suspensions of the different test organisms are distributed to different columns of a microtiter plate, 100 μl per well. The test compounds are dissolved in dimethylsulfoxide (DMSO) at various test concentrations and 2.5 μl of these different DMSO solutions are added to the different wells of the test plates. The plates are covered with plastic films and incubated for 24 h at 36° C. with shaking at 250 rpm. The turbidity developing in the microtiter platesi then examined after 24 h to determine microbial growth.

[2] = test system: Corynebacterium Ax 7; test: as above; type: cell-based, Corynebacterium group G; conditions: read-out: MIC (minimal inhibitory concentration)
Text: as §1, §2

[3] = test system: C. xerosis DSM 20170; test: as above; type: cell-based; conditions: Corynebacterium xerosis, read-out: MIC (minimal inhibitory concentration)
Text: as §1, §2

[4] = test system: S. epidermidis Ax 25; test: as above; type: cell-based; conditions: Staphylococcus epidermidis, read-out: MIC (minimal inhibitory concentration)
Text: as §1, §2

[5] = test system: Escherichia coli DSM 682; test: as above; type: cell-based; conditions: read-out: MIC (minimal inhibitory concentration)
Text: as §1, §2

[6] = test system: Staphylococcus aureus DSM 799; test: as above; type: cell-based; conditions: read-out: MIC (minimal inhibitory concentration)
Text: as §1, §2

[7] = test system: Corynebacterium Ax 15; test: Bactericidal activity (MBC), 60 min contact; type: cell-based, Corynebacterium jeikeium; conditions: AX15, 1 h, inoculum completely killed after 60 min incubation, read-out: MBC (minimal bactericidal concentration)
Text: (§3) The different axilla bacteria are isolated from the human axilla according to techniques known in the art, in particular according to standard microbiological practice. They are taxonomically identified by cell morphology, gram-reaction and biochemical tests included in the Api coryne test kit (BioMerieux, France). Strain Staphylococcus epidermidis Ax25 is identified by fatty acid methyl ester analysis (FAME; German type strain collection DSMZ, Germany) . Escherichia coli DSM 682, Staphylococcus aureus DSM 799, and Corynebacterium xerosis DSM 20170 are obtained from the German-type strain collection. The strains are maintained on Tryptic soy broth plates, this standard medium being supplemented with 5 g per Litre of Polyoxyethylene Sorbitan Monooleate (TweenTM 80). Plates are incubated at 36° C. for a period of 48 hours. The bacteria are then swabbed from the plates and suspended in 4 ml of Muller-Hinton broth supplemented with 100 mg of TweenTM 80 per Litre (MH-Tween) and incubated again at 36° C. for 16 hours. Following incubation the bacterial suspensions are diluted in MH-Tween to obtain a final cell density of 10^7 colony forming units per ml. These diluted suspensions of the different test organisms are distributed to different columns of a microtiter plate, 100 μl per well. The test compounds are dissolved in dimethylsulfoxide (DMSO) at various test concentrations and 2.5 μl of these different DMSO solutions are added to the different wells of the test plates. The plates are covered with plastic films and incubated for 24 h at 36° C. with shaking at 250 rpm. The turbidity developing in the microtiter […] examined after 24 h to determine microbial growth. […] The bacteria are grown, harvested and diluted under the same conditions as described in the example above and added to microtiter plates (100 μl per well), each well containing 2.5 μl of the different DMSO solutions as described above. After 60 min incubation, 0.5 μl of the bacterial culture from each well (corresponding to 5×10^3 cfu in the control treatment) is transferred to a fresh microtiter plate which contained 100 μl per well of fresh medium. The plates are covered with plastic films and incubated for 24 h at 36° C. with shaking at 250 rpm. The turbidity developing in the microtiter plates is then examined after 24 h to determine microbial growth. The minimal concentration of test compounds which completely killed the bacterial inoculum is determined as the minimal bactericidal concentration (MBC).

[8] = test system: C. xerosis DSM 20170; test: Bactericidal activity (MBC), 60 min contact; type: cell-based; conditions: Corynebacterium xerosis, DSM20170, 1 h, inoculum completely killed after 60 min incubation, read-out: MBC (minimal bactericidal concentration)
Text: as §3

[9] = test system: S. epidermidis Ax 25; test: Bactericidal activity (MBC), 60 min contact; type: cell-based; conditions: Staphylococcus epidermidis, AX25, 1 h, inoculum completely killed after 60 min incubation, read-out: MBC (minimal bactericidal concentration)
Text: as §3

[10] = test system: Corynebacterium Ax 7; test: Bactericidal activity (MBC), 60 min contact; type: cell-based, Corynebacterium group G; conditions: AX7, 1 h, inoculum completely killed after 60 min incubation, read-out: MBC (minimal bactericidal concentration)
Text: as §3

[11] = Staphylococcus aureus, DSM799, 24 h
[12] = AX15, Corynebacterium Ax 15, growth inhibited by at least 80%, 24 h at 36° C.
[13] = AX7, Corynebacterium Ax 7, growth inhibited by at least 80%, 24 h at 36° C.
[14] = DSM20170, C. xerosis DSM 20170, growth inhibited by at least 80%, 24 h at 36° C.
[15] = AX25, S. epidermidis Ax 25, growth inhibited by at least 80%, 24 h at 36° C.
[16] = DSM682, Escherichia coli DSM 682, growth inhibited by at least 80%, 24 h at 36° C.
[17] = DSM799, Staphylococcus aureus DSM 799, growth inhibited by at least 80%, 24 h at 36° C.

| SMILES | MIC ([1]; Corynebacterium, AX15, 24 h) [µg/mL] | MIC ([2]; Corynebacterium, AX7, 24 h) [µg/mL] | MIC ([3]; DSM20170, 24 h) [µg/mL] | MIC ([4]; AX25, 24 h) [µg/mL] | MIC ([5]; Escherichia coli, DSM682, 24 h) [µg/mL] | MIC [6, 11] [µg/mL] | MIC [1, 12] [µg/mL] | MIC [2, 13] [µg/mL] | MIC [3, 14] [µg/mL] | MIC [4, 15] [µg/mL] | MIC [5, 16] [µg/mL] | MIC [6, 17] [µg/mL] | MBC [7] [µg/mL] | MBC [8] [µg/mL] | MBC [9] [µg/mL] | MBC [10] [µg/mL] |
| --- | --- | --- | --- | --- | --- | --- | --- | --- | --- | --- | --- | --- | --- | --- | --- | --- |
| CCCCCCCCCCCC(=O)OCC(O)CO (centres unmarked) [C1, Dodecanoic acid 2,3-dihydroxy-propyl ester, reference compound] | 1250 (≈ 4.56 mM) | 160 (≈ 0.583 mM) | 320 (≈ 1.17 mM) | < 80 | > 5000 | 80 (≈ 0.292 mM) | – | – | – | – | – | – | – | – | – | – |
| CCCCC(CC)COCC(O)CO (centres unmarked) [C2, 3-(2-Ethyl-hexyloxy)-propane-1,2-diol, reference compound] | 1250 (≈ 6.12 mM) | 1250 (≈ 6.12 mM) | 630 (≈ 3.08 mM) | 1250 (≈ 6.12 mM) | 630 (≈ 3.08 mM) | 630 (≈ 3.08 mM) | – | – | – | – | – | – | – | – | – | – |
| CC(C)=CCCC(C)=CCCC(C)=CCO [C3, Farnesol, reference compound] | – | – | – | – | – | – | 160 (≈ 0.72 mM) | 140 (≈ 0.63 mM) | 80 (≈ 0.36 mM) | 160 (≈ 0.72 mM) | > 10000 | 160 (≈ 0.72 mM) | – | – | – | – |
| Oc1cc(Cl)ccc1Oc1ccc(Cl)cc1Cl [C4, Triclosan, reference compound] | 30 (≈ 0.104 mM) | 30 (≈ 0.104 mM) | 15 (≈ 0.0518 mM) | 0.15 (≈ 0.000518 mM) | 5 (≈ 0.0173 mM) | 5 (≈ 0.0173 mM) | – | – | – | – | – | – | – | – | – | – |
| CC(COCC(=O)O)Cc1ccc(C(C)(C)C)cc1 (centres unmarked) [compound 1, [3-(4-tert.-Butyl-phenyl)-2-methyl-propoxy]-acetic acid] | – | – | – | – | – | – | 1250 (≈ 4.73 mM) | 625 (≈ 2.36 mM) | 313 (≈ 1.18 mM) | 625 (≈ 2.36 mM) | 2500 (≈ 9.46 mM) | 625 (≈ 2.36 mM) | ≥ 5000 | 2500 (≈ 9.46 mM) | ≥ 5000 | 2500 (≈ 9.46 mM) |
| CCCCC(CC)COCC(=O)O (centres unmarked) [compound 4, (2-Ethyl-hexyloxy)-acetic acid] | – | – | – | – | – | – | 1250 (≈ 6.64 mM) | 1250 (≈ 6.64 mM) | 884 (≈ 4.7 mM) | 625 (≈ 3.32 mM) | 2500 (≈ 13.3 mM) | 625 (≈ 3.32 mM) | ≥ 5000 | ≥ 5000 | ≥ 5000 | 2500 (≈ 13.3 mM) |
